# Data as given in PMC4527083 (European journal of pharmacology, 2014).
# Target: HERG potassium channel (human ether-a-go-go related gene) (Homo sapiens, UniProt Q12809)
# Assay: cell-based
# HERG potassium channel (human ether-a-go-go related gene), sequence (Q12809 whole entry): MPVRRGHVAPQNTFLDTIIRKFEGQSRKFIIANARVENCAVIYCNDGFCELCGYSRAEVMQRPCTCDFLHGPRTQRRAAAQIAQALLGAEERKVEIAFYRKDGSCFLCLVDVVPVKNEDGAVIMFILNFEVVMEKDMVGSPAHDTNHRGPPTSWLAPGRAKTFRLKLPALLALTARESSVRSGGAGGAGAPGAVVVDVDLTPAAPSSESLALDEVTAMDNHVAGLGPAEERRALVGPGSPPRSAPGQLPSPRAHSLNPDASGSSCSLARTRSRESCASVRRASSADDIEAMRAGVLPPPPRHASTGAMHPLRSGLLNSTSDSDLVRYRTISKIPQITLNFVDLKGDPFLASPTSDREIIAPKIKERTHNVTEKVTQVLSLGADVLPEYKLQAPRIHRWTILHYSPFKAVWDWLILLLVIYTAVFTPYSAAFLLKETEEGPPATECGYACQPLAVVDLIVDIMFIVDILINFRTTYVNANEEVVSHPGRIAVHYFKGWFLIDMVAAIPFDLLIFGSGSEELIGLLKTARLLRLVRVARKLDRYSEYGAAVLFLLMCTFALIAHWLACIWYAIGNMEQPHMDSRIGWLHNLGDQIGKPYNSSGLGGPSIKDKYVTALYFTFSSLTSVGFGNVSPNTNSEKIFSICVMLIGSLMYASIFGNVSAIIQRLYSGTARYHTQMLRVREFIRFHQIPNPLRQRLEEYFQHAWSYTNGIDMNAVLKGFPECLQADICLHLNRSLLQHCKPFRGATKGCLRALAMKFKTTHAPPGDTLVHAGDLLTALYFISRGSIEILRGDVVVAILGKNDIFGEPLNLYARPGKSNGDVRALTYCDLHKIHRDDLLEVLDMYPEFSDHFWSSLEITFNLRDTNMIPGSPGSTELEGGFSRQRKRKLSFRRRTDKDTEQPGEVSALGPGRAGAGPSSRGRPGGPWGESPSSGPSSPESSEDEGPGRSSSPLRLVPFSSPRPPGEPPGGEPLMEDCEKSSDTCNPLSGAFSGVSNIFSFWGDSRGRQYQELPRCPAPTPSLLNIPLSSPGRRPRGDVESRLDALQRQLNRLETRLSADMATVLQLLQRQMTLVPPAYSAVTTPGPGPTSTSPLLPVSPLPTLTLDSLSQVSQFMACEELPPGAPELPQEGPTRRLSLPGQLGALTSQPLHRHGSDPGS
smiles,measurement,value
"CCCCCCCCCCCC[N+](C)(C)CCOc1ccccc1 [DB, domiphen bromide]",IC50,9 nM
